Active and inactive are the calls of the source. The calls are words filed in the database; no cut-off is given here.
Key:
Rattus norvegicus [1] = assay: Hepatotoxicity in Rattus norvegicus Wistar albino (rat) assessed as change in plasma AST level at 20 mg/kg, po administered via intragastric tube for 45 days (reference value: 39.6 +/-3.3 ug/dl); type: toxicity, organism-based; parameters: dose 20 mg/kg, route oral; conditions: in vivo, 1080 h
Rattus norvegicus [2] = assay: Toxicity in Rattus norvegicus Wistar albino (rat) assessed as change in glycosylated hemoglobin of total hemoglobin at 20 mg/kg, po administered via intragastric tube for 45 days (reference value: 0.52 +/-0.03 % ); type: organism-based; parameters: dose 20 mg/kg, route oral; conditions: in vivo, 1080 h
Rattus norvegicus [3] = assay: Nephrotoxicity in Rattus norvegicus Wistar albino (rat) assessed as change in serum total protein level at 20 mg/kg, po administered via intragastric tube for 45 days (reference value: 8.12 +/- 1.0 g/dl ); type: toxicity, organism-based; parameters: dose 20 mg/kg, route oral; conditions: in vivo, 1080 h
Rattus norvegicus [4] = assay: Nephrotoxicity in Rattus norvegicus Wistar albino (rat) assessed as change in uric acid level in serum at 20 mg/kg, po administered via intragastric tube for 45 days (reference value: 0.96 +/- 0.93 mg/dl ); type: toxicity, organism-based; parameters: dose 20 mg/kg, route oral; conditions: in vivo, 1080 h
Rattus norvegicus [5] = assay: Hepatotoxicity in Rattus norvegicus Wistar albino (rat) assessed as change in plasma ALT level at 20 mg/kg, po administered via intragastric tube for 45 days (reference value: 56.72 +/-5.2 ug/dl); type: toxicity, organism-based; parameters: dose 20 mg/kg, route oral; conditions: in vivo, 1080 h
Rattus norvegicus [6] = assay: Toxicity in Rattus norvegicus Wistar albino (rat) assessed as change in hemoglobin level at 20 mg/kg, po administered via intragastric tube for 45 days (reference value: 15.12 +/-1.3 mg/dl ); type: organism-based; parameters: dose 20 mg/kg, route oral; conditions: in vivo, 1080 h
Rattus norvegicus [7] = assay: Nephrotoxicity in Rattus norvegicus Wistar albino (rat) assessed as change in creatinine level in serum at 20 mg/kg, po administered via intragastric tube for 45 days (reference value: 1.62 +/- 0.2 mg/dl ); type: toxicity, organism-based; parameters: dose 20 mg/kg, route oral; conditions: in vivo, 1080 h
Rattus norvegicus [8] = assay: Hepatotoxicity in Rattus norvegicus Wistar albino (rat) assessed as change in plasma ALP level at 20 mg/kg, po administered via intragastric tube for 45 days (reference value: 49.99+/-4.7 ug/dl); type: toxicity, organism-based; parameters: dose 20 mg/kg, route oral; conditions: in vivo, 1080 h
Rattus norvegicus [9] = assay: Toxicity in Rattus norvegicus Wistar albino (rat) assessed as serum triglyceride level at 20 mg/kg, po administered via intragastric tube for 45 days (Rvb =17.72 +/-1.3 mg/dl); type: organism-based; parameters: dose 20 mg/kg, route oral; conditions: in vivo, 1080 h
Rattus norvegicus [10] = assay: Nephrotoxicity in Rattus norvegicus Wistar albino (rat) assessed as change in urea level in serum at 20 mg/kg, po administered via intragastric tube for 45 days (reference value: 24.12 +/- 2.3 mg/dl ); type: toxicity, organism-based; parameters: dose 20 mg/kg, route oral; conditions: in vivo, 1080 h
Rattus norvegicus [11] = assay: Toxicity in Rattus norvegicus Wistar albino (rat) assessed as serum cholesterol level at 20 mg/kg, po administered via intragastric tube for 45 days (reference value: 97.72 +/-7.3 mg/dl); type: organism-based; parameters: dose 20 mg/kg, route oral; conditions: in vivo, 1080 h
Rattus norvegicus [12] = assay: Toxicity in Rattus norvegicus Wistar albino (rat) assessed as serum HDL level at 20 mg/kg, po administered via intragastric tube for 45 days (Rvb =65.21 +/-6.9 mg/dl); type: organism-based; parameters: dose 20 mg/kg, route oral; conditions: in vivo, 1080 h
Rattus norvegicus [13] = assay: Hepatotoxicity in Rattus norvegicus Wistar albino (rat) assessed as change in plasma ACP level at 20 mg/kg, po administered via intragastric tube for 45 days (reference value: 9.97+/-1.1 ug/dl); type: toxicity, organism-based; parameters: dose 20 mg/kg, route oral; conditions: in vivo, 1080 h
Rattus norvegicus [14] = assay: Toxicity in Rattus norvegicus Wistar albino (rat) assessed as change in body weight at 20 mg/kg, po administered via intragastric tube for 45 days (reference value: 238.2 +/-7.3 g); type: organism-based; parameters: dose 20 mg/kg, route oral; conditions: in vivo, 1080 h
Rattus norvegicus [15] = assay: Nephroprotective activity in STZ-induced diabetic Rattus norvegicus Wistar albino (rat) assessed as change in serum creatinine level at 20 mg/kg, po administered via intragastric tube for 45 days (reference value: 2.1 +/-0.9 mg/dl); type: functional
Rattus norvegicus [16] = assay: Antidiabetic activity against STZ-induced diabetic Rattus norvegicus Wistar albino (rat) assessed as serum LDL level at 20 mg/kg, po administered via intragastric tube for 45 days (reference value: 165.7 +/-14.35 mg/dl); type: functional
Rattus norvegicus [17] = assay: Antidiabetic activity against STZ-induced diabetic Rattus norvegicus Wistar albino (rat) assessed as change in body weight at 20 mg/kg, po administered via intragastric tube for 45 days (reference value: 243.67 +/-8.9 g); type: functional
Rattus norvegicus [18] = assay: Hepatoprotective activity in STZ-induced diabetic Rattus norvegicus Wistar albino (rat) assessed as plasma ALT level at 20 mg/kg, po administered via intragastric tube for 45 days (reference value: 97.11 +/-10.3 ug/dl); type: functional
Rattus norvegicus [19] = assay: Nephroprotective activity in STZ-induced diabetic Rattus norvegicus Wistar albino (rat) assessed as change in serum urea level at 20 mg/kg, po administered via intragastric tube for 45 days (reference value: 41.5 +/-4.9 mg/dl); type: functional
Rattus norvegicus [20] = assay: Antidiabetic activity against STZ-induced diabetic Rattus norvegicus Wistar albino (rat) assessed as serum triglyceride level at 20 mg/kg, po administered via intragastric tube for 45 days (reference value: 65.5 +/-7.9 mg/dl); type: functional
Rattus norvegicus [21] = assay: Antidiabetic activity against STZ-induced diabetic Rattus norvegicus Wistar albino (rat) assessed as change in glycosylated hemoglobin of total hemoglobin at 20 mg/kg, po administered via intragastric tube for 45 days (reference value: 0.89 +/-0.03 %); type: functional
Rattus norvegicus [22] = assay: Nephroprotective activity in STZ-induced diabetic Rattus norvegicus Wistar albino (rat) assessed as change in serum uric acid level at 20 mg/kg, po administered via intragastric tube for 45 days (reference value: 1.5 +/-0.9 mg/dl); type: functional
Rattus norvegicus [23] = assay: Antidiabetic activity against STZ-induced diabetic Rattus norvegicus Wistar albino (rat) assessed as serum VLDL level at 20 mg/kg, po administered via intragastric tube for 45 days (reference value: 55.2 +/-4.5 mg/dl); type: functional
Rattus norvegicus [24] = assay: Hepatoprotective activity in STZ-induced diabetic Rattus norvegicus Wistar albino (rat) assessed as re-apperance of hepatic lobules at 20 mg/kg, po administered via intragastric tube for 45 days using hematoxylin/eosin staining method; type: functional, organism-based; parameters: dose 20 mg/kg; conditions: Liver
Rattus norvegicus [25] = assay: Nephroprotective activity in STZ-induced diabetic Rattus norvegicus Wistar albino (rat) assessed as reduction in enlargement of glomerulus at 20 mg/kg, po administered via intragastric tube for 45 days using hematoxylin/eosin staining method; type: functional, organism-based; parameters: dose 20 mg/kg
Rattus norvegicus [26] = assay: Antidiabetic activity against STZ-induced diabetic Rattus norvegicus Wistar albino (rat) assessed as serum cholesterol level at 20 mg/kg, po administered via intragastric tube for 45 days (reference value: 295.5 +/-17.1 mg/dl); type: functional
Rattus norvegicus [27] = assay: Hepatoprotective activity in STZ-induced diabetic Rattus norvegicus Wistar albino (rat) assessed as plasma ACP level at 20 mg/kg, po administered via intragastric tube for 45 days (reference value: 28.7 +/-2.61 ug/dl); type: functional
Rattus norvegicus [28] = assay: Hepatoprotective activity in STZ-induced diabetic Rattus norvegicus Wistar albino (rat) assessed as plasma ALP level at 20 mg/kg, po administered via intragastric tube for 45 days (reference value: 91.1 +/-9.2 ug/dl); type: functional
Rattus norvegicus [29] = assay: Nephroprotective activity in STZ-induced diabetic Rattus norvegicus Wistar albino (rat) assessed as reduction in glomerular expansion at 20 mg/kg, po administered via intragastric tube for 45 days using hematoxylin/eosin staining method; type: functional, organism-based; parameters: dose 20 mg/kg
Rattus norvegicus [30] = assay: Nephroprotective activity in STZ-induced diabetic Rattus norvegicus Wistar albino (rat) assessed as change in serum total protein level at 20 mg/kg, po administered via intragastric tube for 45 days (reference value: 3.7 +/-0.9 g/dl); type: functional
Rattus norvegicus [31] = assay: Antidiabetic activity against STZ-induced diabetic Rattus norvegicus Wistar albino (rat) assessed as change in hemoglobin at 20 mg/kg, po administered via intragastric tube for 45 days (reference value: 8.5 +/-0.9 mg/dl); type: functional
Rattus norvegicus [32] = assay: Hepatoprotective activity in STZ-induced diabetic Rattus norvegicus Wistar albino (rat) assessed as plasma AST level at 20 mg/kg, po administered via intragastric tube for 45 days (reference value: 85.5 +/-9.21 ug/dl); type: functional
Rattus norvegicus [33] = assay: Antidiabetic activity against STZ-induced diabetic Rattus norvegicus Wistar albino (rat) assessed as serum HDL level at 20 mg/kg, po administered via intragastric tube for 45 days (reference value: 25.8 +/-1.6 mg/dl); type: functional

## Oc1cc(O)c2c(c1)O[C@H](c1ccc(O)c(O)c1)[C@@H](O)C2 [CATECHIN]
Rattus norvegicus [1]
  Activity: 36.12 µg/dL
Rattus norvegicus [2]
  Activity: 0.46%
Rattus norvegicus [3]
  Activity: 8.98 g/dL
Rattus norvegicus [4]
  Activity: 0.98 mg/dL
Rattus norvegicus [5]
  Activity: 55.18 µg/dL
Rattus norvegicus [6]
  Activity: 14.98 mg/dL
Rattus norvegicus [7]
  Activity: 1.98 mg/dL
Rattus norvegicus [8]
  Activity: 50.87 µg/dL
Rattus norvegicus [9]
  Activity: 18.18 mg/dL
Rattus norvegicus [10]
  Activity: 23.98 mg/dL
Rattus norvegicus [11]
  Activity: 98.34 mg/dL
Rattus norvegicus [12]
  Activity: 68.65 mg/dL
Rattus norvegicus [13]
  Activity: 9.52 µg/dL
Rattus norvegicus [14]
  Activity: 239.67 g

## Oc1cc(O)c2c(c1)OC(c1ccc(O)c(O)c1)C(O)C2 (stereo not drawn) [CATECHIN]
Rattus norvegicus [15]
  Activity: 1.78 mg/dL
Rattus norvegicus [16]
  Activity: 91.28 mg/dL
Rattus norvegicus [17]
  Activity: 209.12 g
Rattus norvegicus [18]
  Activity: 59.71 µg/dL
Rattus norvegicus [19]
  Activity: 29.98 mg/dL
Rattus norvegicus [20]
  Activity: 20.81 mg/dL
Rattus norvegicus [21]
  Activity: 0.57%
Rattus norvegicus [22]
  Activity: 0.99 mg/dL
Rattus norvegicus [23]
  Activity: 13.21 mg/dL
Rattus norvegicus [24]
  Activity: Active
Rattus norvegicus [25]
  Activity: Active
Rattus norvegicus [26]
  Activity: 109.21 mg/dL
Rattus norvegicus [27]
  Activity: 11.98 µg/dL
Rattus norvegicus [28]
  Activity: 54.29 µg/dL
Rattus norvegicus [29]
  Activity: Active
Rattus norvegicus [30]
  Activity: 6.58 g/dL
Rattus norvegicus [31]
  Activity: 14.98 mg/dL
Rattus norvegicus [32]
  Activity: 41.95 µg/dL
Rattus norvegicus [33]
  Activity: 60.56 mg/dL

Source: ChEMBL document CHEMBL3045428, “Hypolipidemic, hepato-protective and renal damage recovering effects of catechin isolated from the methanolic extract of Cassia fistula stem bark on Streptozotocin-induced diabetic Wistar rats: a biochemical and morphological analysis” (Med Chem Res, 2012)
